The values that follow come from US20240424113A1, “CONJUGATES COMPRISING ANTIFUNGALS AND HEAT SHOCK PROTEIN 90 (HSP90) INHIBITORS AND METHODS OF USE THEREOF” (Bright Angel Therapeutics Inc., priority 2021, published 2024).

≈ marks a conversion by molar mass, not a printed value. A value given as a limit tells only on which side of the number the result lay.

One series has as its system HepG2 cells. Description: Mammalian cell toxicity (Cell Titer-Glo). The format is cell-based. The procedure:
Mammalian Cell Toxicity. HepG2 cells were seeded overnight at 500 cells/well in 384-well plate, then incubated with compounds (10-point concentration titration) for 48 h. Cell Titer-Glo® reagent ([…]) was added to each well and after 10-minute incubation at room temperature the luminescent signal was measured using an Envision plate reader (Perkin Elmer).

In another series the test system is CaCl2. Description: Antifungal sensitivity testing (broth microdilution MIC). Particulars: 96-well broth microdilution. The format is cell-based. As for the experimental part:
Antifungal Sensitivity Testing. Minimum inhibitory concentrations (MICs) were determined in flat bottom, 96-well plate format using a modified broth microdilution protocol as previously described (Singh et al., PLoS Pathog. 5, e1000532 (2009); LaFayette et al., PLoS Pathog. 6, 79-80 (2010)). Compounds were formulated in dimethyl sulfoxide (DMSO, Sigma-Aldrich Co.); fluconazole was dissolved in sterile ddH2O. Each compound was tested in duplicate in at least two independent experiments. To test for fungicidal activity, cultures from MIC plates were spotted on YPD agar plates using a spotter (Frogger, V&P Scientific, Inc.). Plates were photographed after 24 h of incubation at 30° C.
On the technique in general: In broth dilution the organism is exposed to a series of concentrations in liquid medium.

For series [1], the target named is Hsp90 Nuclear Binding Domain (NBD) (Aspergillus fumigatus, UniProt P40292). Description: Surface Plasmon Resonance (SPR) binding, A. fumigatus Hsp90 NBD. To be noted: biotinylated Hsp90 NBD on streptavidin chip, 25° C., 1:1 binding model; NB undefined. The procedure:
(§1) Surface Plasmon Resonance (SPR) Experiments. SPR experiments were performed on a Biacore S200 instrument at 25° C. Biotinylated Hsp90 Nuclear Binding Domain (NBD) was diluted to 40 μg/mL and immobilized on a streptavidin chip (Sensor Chip SA, GE Healthcare) at a density of 2000-2500 response units (RU) on the biosensor surface.
(§2) Recombinant Hsp90 NBDs were expressed and purified as previously described (Whitesell et al., Nat Commun 10, 402 (2019)) with the following modification; Hsp90 NBD expression constructs were modified to encode a C-terminal AviTag for site-specific on-column biotinylation with a BirA biotin-ligase kit (Avidity LLC; BirA-500). Stock protein solutions in 50% glycerol were stored at −20° C. until dilution into relevant buffers. Binding experiments were done in HBS-P (0.01 M HEPES, pH 7.4, 0.15 M NaCl, 0.005% v/v surfactant P20, GE Healthcare) with 2% DMSO at flow rate of 40 μL/min. Test compounds (dilution series) were injected with a 60 s association time and 600 s dissociation time. Resulting sensorgrams were analyzed with a fit to a 1:1 binding model, using BIA evaluation software.

Series [2] deals with Hsp90 Nuclear Binding Domain (NBD) (Candida albicans (strain SC5314 / ATCC MYA-2876) (Yeast), UniProt P46598). As to the kind of experiment: Surface Plasmon Resonance (SPR) binding, C. albicans Hsp90 NBD. Particulars: biotinylated Hsp90 NBD on streptavidin chip, 25° C., 1:1 binding model. The procedure: as §1, §2
Chain of Hsp90 Nuclear Binding Domain (NBD) (Candida albicans (strain SC5314 / ATCC MYA-2876) (Yeast), UniProt P46598) (P46598 1-218 limits assumed): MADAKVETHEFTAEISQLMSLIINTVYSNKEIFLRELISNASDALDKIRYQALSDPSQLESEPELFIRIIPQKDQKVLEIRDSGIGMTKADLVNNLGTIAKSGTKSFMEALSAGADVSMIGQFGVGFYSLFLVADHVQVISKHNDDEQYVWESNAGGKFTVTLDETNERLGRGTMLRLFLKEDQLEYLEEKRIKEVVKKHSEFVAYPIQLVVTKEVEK

Chain of Hsp90 Nuclear Binding Domain (NBD) (Aspergillus fumigatus, UniProt P40292) (P40292 whole entry, looked up, the tested form may be a part): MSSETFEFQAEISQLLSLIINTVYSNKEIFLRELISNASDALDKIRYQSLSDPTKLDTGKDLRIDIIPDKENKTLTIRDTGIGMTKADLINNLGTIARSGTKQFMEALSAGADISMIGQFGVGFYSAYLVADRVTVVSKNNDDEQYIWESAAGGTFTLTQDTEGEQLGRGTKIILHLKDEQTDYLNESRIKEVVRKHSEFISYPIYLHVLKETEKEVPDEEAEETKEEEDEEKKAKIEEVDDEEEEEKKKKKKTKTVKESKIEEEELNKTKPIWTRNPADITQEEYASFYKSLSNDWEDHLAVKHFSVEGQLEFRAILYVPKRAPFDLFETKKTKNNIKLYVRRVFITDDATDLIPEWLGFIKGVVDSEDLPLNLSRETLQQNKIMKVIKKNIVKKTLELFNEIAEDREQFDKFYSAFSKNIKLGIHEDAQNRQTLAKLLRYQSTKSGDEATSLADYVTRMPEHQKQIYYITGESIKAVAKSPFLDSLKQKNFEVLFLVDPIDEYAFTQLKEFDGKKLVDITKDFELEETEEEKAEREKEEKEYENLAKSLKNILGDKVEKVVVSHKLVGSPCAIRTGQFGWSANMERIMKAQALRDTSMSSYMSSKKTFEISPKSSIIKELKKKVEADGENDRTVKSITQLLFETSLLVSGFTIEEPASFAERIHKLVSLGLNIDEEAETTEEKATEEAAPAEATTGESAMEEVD

As to `Nc1nc2sc(C(=O)NC3CCN(CC(O)(Cn4cncn4)c4ccc(F)cc4F)CC3)cc2n(-c2ccc3c(c2)N(c2ccccc2)CCO3)c1=O` (centres unmarked) [Compound I-4, 3-amino-N-(1-(2-(2,4-difluorophenyl)-2-hydroxy-3-(1H-1,2,4-triazol-1-yl)propyl)piperidin-4-yl)-2-oxo-1-(4-phenyl-3,4-dihydro-2H-benzo[b][1,4]oxazin-6-yl)-1,2-dihydrothieno[2,3-b]pyrazine-6-carboxamide], the “HepG2 MIC50” value with HepG2 cells (Table 5, 48 h incubation) was greater than 10 µM; in the series with HepG2 cells (Table 6, 48 h incubation), greater than 10 µM. For the same molecule, the MIC50 in the series with CaCl2 (Table 4) and in the series on CaCl2 (Table 6) was 0.75 µM (≈ 0.555 µg/mL) throughout. Besides, the Kd (as a rule, the constant that tells how readily two partners part at equilibrium) in series [1] was 113 nM; in series [2], 28 nM.

Consider `Nc1nc2sc(C(=O)N[C@@H]3CCN(C[C@@](O)(Cn4cncn4)c4ccc(F)cc4F)C3)cc2n(-c2ccc3c(c2)N(c2ccccc2)CCO3)c1=O` [Compound I-11, 3-amino-N-((R)-1-((R)-2-(2,4-difluorophenyl)-2-hydroxy-3-(1H-1,2,4-triazol-1-yl)propyl)pyrrolidin-3-yl)-2-oxo-1-(4-phenyl-3,4-dihydro-2H-benzo[b][1,4]oxazin-6-yl)-1,2-dihydrothieno[2,3-b]pyrazine-6-carboxamide], for which the “HepG2 MIC50” value with HepG2 cells (Table 6, 48 h incubation) worked out at 2.4 µM. Further, the MIC50 in the series on CaCl2 (Table 4) and in the series on CaCl2 (Table 6) was 2.5 µM (≈ 1.81 µg/mL) each time. The Kd in series [1] came to 24.8 nM; in series [2], 0.8 nM.

With `Cc1ccc(-n2c(=O)c(N)nc3sc(C(=O)NC4CCN(CC(O)(Cn5cncn5)c5ccc(F)cc5F)CC4)cc32)cc1Oc1ccccc1` (centres unmarked) [Compound I-12, 3-amino-N-(1-(2-(2,4-difluorophenyl)-2-hydroxy-3-(1H-1,2,4-triazol-1-yl)propyl)piperidin-4-yl)-1-(4-methyl-3-phenoxyphenyl)-2-oxo-1,2-dihydrothieno[2,3-b]pyrazine-6-carboxamide], the “HepG2 MIC50” value was greater than 10 µM in the series with HepG2 cells (Table 5, 48 h incubation) and greater than 10 µM with HepG2 cells (Table 6, 48 h incubation). Also, the MIC50 with CaCl2 (Table 4) and against CaCl2 (Table 6) was 0.18 µM (≈ 0.128 µg/mL) throughout. For the same molecule, the Kd in series [1] was found to be 431 nM; in series [2], 146 nM.

Take `Nc1nc2scc(C(=O)NC3CCN(CC(O)(Cn4cncn4)c4ccc(F)cc4F)CC3)c2n(-c2ccc3c(c2)N(c2ccccc2)CCO3)c1=O` (centres unmarked) [Compound I-18, 3-amino-N-(1-(2-(2,4-difluorophenyl)-2-hydroxy-3-(1H-1,2,4-triazol-1-yl)propyl)piperidin-4-yl)-2-oxo-1-(4-phenyl-3,4-dihydro-2H-benzo[b][1,4]oxazin-6-yl)-1,2-dihydrothieno[2,3-b]pyrazine-7-carboxamide]: in the series on HepG2 cells (Table 6, 48 h incubation), the “HepG2 MIC50” value was greater than 50 µM. Besides, the MIC50 with CaCl2 (Table 4) and against CaCl2 (Table 6) was 20 µM (≈ 14.8 µg/mL) each time. For the same molecule, the Kd in series [1] turned out to be 741 nM; in series [2], 459 nM.

As for `Nc1nc2sc(CN[C@H]3[C@@H]4CN(C[C@](O)(Cn5cncn5)c5ccc(F)cc5F)C[C@@H]43)cc2n(-c2ccc3c(c2)N(c2ccccc2)CCO3)c1=O` [Compound I-125, 3-amino-6-((((1R,5S,6R)-3-((S)-2-(2,4-difluorophenyl)-2-hydroxy-3-(1H-1,2,4-triazol-1-yl)propyl)-3-azabicyclo[3.1.0]hexan-6-yl)amino)methyl)-1-(4-phenyl-3,4-dihydro-2H-benzo[b][1,4]oxazin-6-yl)thieno[2,3-b]pyrazin-2(1H)-one], the MIC50 (as a rule, an inhibitory concentration at the 50% level, which refers to growth in some studies and to a panel of isolates in others) in the series with CaCl2 (Table 4) stood at 5.75 µM (≈ 4.16 µg/mL). In addition, the Kd in series [1] was determined as 886 nM; in series [2] it was 575 nM.

`Nc1nc2sc(CN[C@H]3[C@@H]4CN(C[C@@](O)(Cn5cncn5)c5ccc(F)cc5F)C[C@@H]43)cc2n(-c2ccc3c(c2)N(c2ccccc2)CCO3)c1=O` [Compound I-127, 3-amino-6-((((1R,5S,6S)-3-((R)-2-(2,4-difluorophenyl)-2-hydroxy-3-(1H-1,2,4-triazol-1-yl)propyl)-3-azabicyclo[3.1.0]hexan-6-yl)amino)methyl)-1-(4-phenyl-3,4-dihydro-2H-benzo[b][1,4]oxazin-6-yl)thieno[2,3-b]pyrazin-2(1H)-one] showed an MIC50 against CaCl2 (Table 4) of 6.25 µM (≈ 4.52 µg/mL). Further, the Kd in series [1] turned out to be 1190 nM; in series [2], 699 nM.

`Nc1nc2sc(CNC3CCN(C(=O)C[C@@](O)(Cn4cncn4)c4ccc(F)cc4F)CC3)cc2n(-c2ccc3c(c2)N(c2ccccc2)CCO3)c1=O` [Compound I-129, (S)-3-amino-6-(((1-(3-(2,4-difluorophenyl)-3-hydroxy-4-(1H-1,2,4-triazol-1-yl)butanoyl)piperidin-4-yl)amino)methyl)-1-(4-phenyl-3,4-dihydro-2H-benzo[b][1,4]oxazin-6-yl)thieno[2,3-b]pyrazin-2(1H)-one]: the MIC50 in the series with CaCl2 (Table 4) was determined as 7 µM (≈ 5.28 µg/mL). Also, the equilibrium dissociation constant (Kd) stood at 698 nM in series [1] and 546 nM in series [2].

Consider `Nc1nc2sc(CNCC3CCN(C[C@](O)(Cn4cncn4)c4ccc(F)cc4F)CC3)cc2n(-c2ccc3c(c2)N(c2ccccc2)CCO3)c1=O` [Compound I-131, (S)-3-amino-6-((((1-(2-(2,4-difluorophenyl)-2-hydroxy-3-(1H-1,2,4-triazol-1-yl)propyl)piperidin-4-yl)methyl)amino)methyl)-1-(4-phenyl-3,4-dihydro-2H-benzo[b][1,4]oxazin-6-yl)thieno[2,3-b]pyrazin-2(1H)-one], for which the “HepG2 MIC50” value stood at 9 µM with HepG2 cells (Table 5, 48 h incubation) and 9 µM in the series on HepG2 cells (Table 6, 48 h incubation). The MIC50 against CaCl2 (Table 4) and in the series with CaCl2 (Table 6) was 1.25 µM (≈ 0.925 µg/mL) throughout.

As for `Nc1nc2sc(CNC3CCN(CC(O)(Cn4cncn4)c4ccc(F)cc4F)CC3(F)F)cc2n(-c2ccc3c(c2)N(c2ccccc2)CCO3)c1=O` (centres unmarked) [Compound I-137, 3-amino-6-(((1-(2-(2,4-difluorophenyl)-2-hydroxy-3-(1H-1,2,4-triazol-1-yl)propyl)-3,3-difluoropiperidin-4-yl)amino)methyl)-1-(4-phenyl-3,4-dihydro-2H-benzo[b][1,4]oxazin-6-yl)thieno[2,3-b]pyrazin-2(1H)-one], the MIC50 in the series with CaCl2 (Table 4) was determined as 0.78 µM (≈ 0.594 µg/mL). The results for the Kd in series [1] and in series [2] were 127 nM and 54.1 nM, respectively.

With `Nc1nc2sc(CNC(=O)C3CCN(CC(O)(Cn4cncn4)c4ccc(F)cc4F)CC3)cc2n(-c2ccc3c(c2)N(c2ccccc2)CCO3)c1=O` (centres unmarked) [Compound I-140, N-((3-amino-2-oxo-1-(4-phenyl-3,4-dihydro-2H-benzo[b][1,4]oxazin-6-yl)-1,2-dihydrothieno[2,3-b]pyrazin-6-yl)methyl)-1-(2-(2,4-difluorophenyl)-2-hydroxy-3-(1H-1,2,4-triazol-1-yl)propyl)piperidine-4-carboxamide], in the series on CaCl2 (Table 4), the MIC50 amounted to 6.3 µM (≈ 4.75 µg/mL). Also, the results for the Kd in series [1] and in series [2] were 434 nM and 746 nM, respectively.

Regarding `Nc1nc2sc(CNC3CCN(CC(O)(Cn4cncn4)c4ccc(F)cc4F)C(=O)C3)cc2n(-c2ccc3c(c2)N(c2ccccc2)CCO3)c1=O` (centres unmarked) [Compound I-141, 3-amino-6-(((1-(2-(2,4-difluorophenyl)-2-hydroxy-3-(1H-1,2,4-triazol-1-yl)propyl)-2-oxopiperidin-4-yl)amino)methyl)-1-(4-phenyl-3,4-dihydro-2H-benzo[b][1,4]oxazin-6-yl)thieno[2,3-b]pyrazin-2(1H)-one], the MIC50 with CaCl2 (Table 4) was determined as 6.3 µM (≈ 4.66 µg/mL). Also, the results for the dissociation constant Kd in series [1] and in series [2] were 620 nM and 342 nM, respectively.

Take `Nc1nc2sc(C(=O)NC3CCN(CC(O)(Cn4cncn4)c4ccccn4)CC3)cc2n(-c2ccc3c(c2)N(c2ccccc2)CCO3)c1=O` (centres unmarked) [Compound I-142, 3-amino-N-(1-(2-hydroxy-2-(pyridin-2-yl)-3-(1H-1,2,4-triazol-1-yl)propyl)piperidin-4-yl)-2-oxo-1-(4-phenyl-3,4-dihydro-2H-benzo[b][1,4]oxazin-6-yl)-1,2-dihydrothieno[2,3-b]pyrazine-6-carboxamide]: in the series on CaCl2 (Table 4), the MIC50 came out at 25 µM (≈ 17.6 µg/mL). Also, the equilibrium dissociation constant (Kd) in series [1] is 34.1 nM; in series [2] it was 2.4 nM.

In turn, `Nc1nc2sc(CNC3CCN(CC(O)(Cn4cncn4)c4ccccc4)CC3)cc2n(-c2ccc3c(c2)N(c2ccccc2)CCO3)c1=O` (centres unmarked) [Compound I-145, 3-amino-6-(((1-(2-hydroxy-2-phenyl-3-(1H-1,2,4-triazol-1-yl)propyl)piperidin-4-yl)amino)methyl)-1-(4-phenyl-3,4-dihydro-2H-benzo[b][1,4]oxazin-6-yl)thieno[2,3-b]pyrazin-2(1H)-one] returned an MIC50 in the series on CaCl2 (Table 4) of 12.5 µM (≈ 8.62 µg/mL). Moreover, the dissociation constant (Kd) was 161 nM in series [1] and 114 nM in series [2].
